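A five-concentration, 48-hour dose response in 96-well plates underlies each endpoint, interpolated linearly between surrounding concentrations. Here, GI50 denotes the concentration required for 50% inhibition of growth. TGI: concentration producing complete growth inhibition.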
Experiments:
Assay in all cases: NCI-60 cell line screen, 48 h
A498 renal = tested on: A498 renal
HCT-15 colon = tested on: HCT-15 colon
HL-60(TB) leukemia = tested on: HL-60(TB) leukemia
M14 melanoma = tested on: M14 melanoma
OVCAR-8 ovarian = tested on: OVCAR-8 ovarian
RXF 393 renal = tested on: RXF 393 renal
SN12C renal = tested on: SN12C renal
SNB-19 CNS = tested on: SNB-19 CNS
SW-620 colon = tested on: SW-620 colon
A549 NSCLC = tested on: A549 NSCLC

| SMILES | TGI (A498 renal) | TGI (HCT-15 colon) | TGI (HL-60(TB) leukemia) | TGI (M14 melanoma) | TGI (OVCAR-8 ovarian) | TGI (RXF 393 renal) | TGI (SN12C renal) | TGI (SNB-19 CNS) | TGI (SW-620 colon) | TGI (A549 NSCLC) | GI50 (A549 NSCLC) | GI50 (HCT-15 colon) | GI50 (HL-60(TB) leukemia) | GI50 (M14 melanoma) | GI50 (OVCAR-8 ovarian) | GI50 (RXF 393 renal) | GI50 (SN12C renal) | GI50 (SNB-19 CNS) | GI50 (SW-620 colon) | GI50 (A498 renal) |
| --- | --- | --- | --- | --- | --- | --- | --- | --- | --- | --- | --- | --- | --- | --- | --- | --- | --- | --- | --- | --- |
| COC12c3ccccc3-c3ccccc3C1[C@@H](C(=O)O)[C@H]2C(=O)O (stereo partly specified) | > 10 µM | > 10 µM | > 10 µM | > 10 µM | > 10 µM | > 10 µM | > 10 µM | > 10 µM | > 10 µM |  |  |  |  |  |  |  |  |  |  |  |
| Cc1ccc(C)c(NC(=O)CCC(=O)CC(=O)C(C)(C)C)c1 | > 100 µM | > 100 µM |  | > 100 µM | > 100 µM | > 100 µM | > 100 µM | > 100 µM | > 100 µM | > 100 µM |  |  |  |  |  |  |  |  |  |  |
| O=S(=O)(Nc1ccc2ccc3cccc4ccc1c2c34)c1ccccc1 |  | > 100 µM | > 100 µM | > 100 µM | > 100 µM | > 100 µM | 65.4 µM | > 100 µM | > 100 µM | > 100 µM |  |  |  |  |  |  |  |  |  |  |
| CN(C)c1ccc(N=C(C#N)c2nc(N)nc(N3CCOCC3)n2)cc1 |  | > 100 µM | > 100 µM | > 100 µM | > 100 µM | 70.1 µM | 98.5 µM | > 100 µM | > 100 µM | > 100 µM | 38.8 µM | 52.9 µM | 70.4 µM | > 100 µM | 38.1 µM | 27.5 µM | 28.8 µM | > 100 µM | > 100 µM |  |
| COc1ccc2c(c1)C(=O)/C(=C/c1ccc(OCC(=O)c3ccc(Cl)cc3)cc1)O2 | > 100 µM | 26.3 µM | 16.9 µM |  | > 100 µM | 42.4 µM | 63.9 µM | > 100 µM | 10.6 µM | > 100 µM | 31.4 µM | 12.6 µM | 2.89 µM |  | 42.4 µM | 17.3 µM | 17.3 µM | 48.2 µM | 3.48 µM | 48.9 µM |
| Nc1ncn([C@@H]2C=C(CO)C(O)C2O)c(=O)n1 (stereo partly specified) | > 100 µM | > 100 µM | > 100 µM | > 100 µM | > 100 µM |  | > 100 µM | > 100 µM | > 100 µM | > 100 µM |  |  |  |  |  |  |  |  |  |  |
| O=C1/C(=C/c2ccccc2Cl)COc2ccccc21 | 32.4 µM |  | 58 µM |  | 33.4 µM | 28.9 µM |  |  | 20.8 µM | 55.8 µM |  |  |  |  |  |  |  |  |  |  |
| COc1cccc(C2C3=C(COC3=O)N(CCO)c3cc4c(cc32)CCC4)c1 (stereo unspecified) | 0.0483 µM | > 22.2 µM | 0.314 µM | 0.208 µM | > 17.1 µM |  | > 32.6 µM | 0.321 µM | > 50 µM |  | 0.0982 µM | 0.122 µM | 0.111 µM | 0.0358 µM | 0.098 µM |  | 0.269 µM | 0.0468 µM | 0.0252 µM | 0.0154 µM |
| CC1(C)CC[C@]2(C(=O)O)CCC3(C)C(=CCC4[C@@]5(C)CC[C@H](OC6OCC(O)C(O)C6OC6OC(CO)C(O)C(O)C6O)C(C)(C)C5CC[C@]43C)C2C1 (stereo partly specified) | 4.09 µM | 4.38 µM |  | 3.45 µM | 4.12 µM | 3.53 µM | 3.42 µM | 3.7 µM | 4.03 µM | 3.53 µM |  |  |  |  |  |  |  |  |  |  |
| CCCCCNC(=O)C1C(=O)N(CCCCC)C(=O)/C1=N\N (stereo unspecified) | > 100 µM | > 100 µM | > 100 µM | > 100 µM | > 100 µM |  | > 100 µM | > 100 µM | > 100 µM | > 100 µM |  |  |  |  |  |  |  |  |  |  |
| Clc1ccc(C2=NN(c3ccccc3)C3c4cc(Br)ccc4OCC23)cc1 (stereo unspecified) | > 100 µM |  | > 100 µM |  | > 100 µM | > 100 µM |  | > 100 µM | > 100 µM | > 100 µM |  |  |  |  |  |  |  |  |  |  |
| O=[N+]([O-])c1ccc(N=Nc2c(O)[nH]c3ccc(Br)cc23)c([N+](=O)[O-])c1 |  | 11.6 µM | 4.77 µM | 21.2 µM | 18.9 µM | 15.3 µM | 11.4 µM | 17.1 µM | 11.7 µM | 20.4 µM |  |  |  |  |  |  |  |  |  |  |
| O=c1[nH]cnc2c1nnn2C1C=C(CO)C(O)C1O (stereo unspecified) | > 100 µM | > 100 µM |  | > 100 µM | > 100 µM | > 100 µM | > 100 µM | > 100 µM |  | > 100 µM |  |  |  |  |  |  |  |  |  |  |
| c1ccc2c(c1)SCCCSCCCS2 |  | > 100 µM | 74.5 µM | > 100 µM | > 100 µM |  | > 100 µM | > 100 µM | > 100 µM | > 100 µM |  |  |  |  |  |  |  |  |  |  |
| COc1ccc(C(NCCNC(c2ccc(OC)c(OC)c2)c2cc3c(cc2O)OCO3)c2cc3c(cc2O)OCO3)cc1OC (stereo unspecified) | 20.2 µM | 5.21 µM | 4.69 µM | 8.39 µM |  | 4.85 µM | 4.55 µM | 15.4 µM | 3.86 µM | 32.3 µM |  |  |  |  |  |  |  |  |  |  |
| CC/C(=C(/CC)c1ccc(OP(=O)([O-])[O-])cc1)c1ccc(OP(=O)([O-])[O-])cc1.N.N.N.N.[Pt+4].[Pt+4] | 61.1 µM | 45.4 µM | 16.4 µM | 6.87 µM | > 100 µM | 6.76 µM | 45.7 µM |  | 62.2 µM | 8.43 µM | 2.45 µM | 11.8 µM | 0.518 µM | 1.63 µM | 4.71 µM | 2.4 µM | 3.93 µM |  | 5.19 µM | 27.5 µM |
| Cc1cc2c(C)nn(Cc3ccc(Cl)cc3Cl)c2c(C#N)c1C |  | > 100 µM | > 100 µM |  | > 100 µM | > 100 µM | > 100 µM | > 100 µM | > 100 µM | > 100 µM |  |  |  |  |  |  |  |  |  |  |
| CCN1N=CSC12C(=O)N(c1ccccc1)C(=O)N2c1ccccc1 (stereo unspecified) | > 100 µM |  | > 100 µM | > 100 µM | > 100 µM | > 100 µM | > 100 µM | > 100 µM | > 100 µM | > 100 µM |  |  |  |  |  |  |  |  |  |  |
| COc1ccc(C(=O)Nc2ccccc2C#N)cc1 | > 100 µM | > 100 µM | > 100 µM |  | > 100 µM | > 100 µM | > 100 µM | > 100 µM | > 100 µM | > 100 µM |  |  |  |  |  |  |  |  |  |  |
| Cn1cccc1C1CC(=O)N(CCC[Se]C#N)C1=O (stereo unspecified) | 2.78 µM | 6.43 µM | 4.68 µM | 3.89 µM | 4.44 µM | 3.43 µM |  | 3.08 µM | 11.8 µM | 5.17 µM | 2.07 µM | 2.35 µM | 2.11 µM | 1.56 µM | 2.05 µM | 1.74 µM |  | 1.62 µM | 3.26 µM | 1.3 µM |
